Test results: publication doi:10.1101/2024.08.19.608619, “Discovery of potent SARS-CoV-2 nsp3 macrodomain inhibitors uncovers lack of translation to cellular antiviral response” (bioRxiv, 2024)
≈ marks a conversion by molar mass, not a printed value. Where “and” joins values, the source holds several entries; their conditions need not be identical. Equal entries are not always repeated. Where two headings read alike, the source gives them in different places.

Legend:
[1] = LogD
[2] = target: CDK2/cyclinA(h) (Homo sapiens, UniProt P24941); assay: biochemical; design: In vitro kinase panel profiling, per cent remaining kinase activity at 10 uM; settings: atp_concentration=45, read-out: % of control remaining
Text: (§1) We derisk potential for off-target activity by profiling the compound in a CEREP panel, a standard secondary pharmacology assessment, as well as a kinase panel to derisk a potential hinge-binding motif in our leads, and a PARP panel to derisk activity against human […]. Reassuringly, the compounds are selective, with the only off-targets being moderate human CHRM2 and KOR receptors activity associated with ASAP-0011198.

[3] = target: T1, GSK3β(h) (Homo sapiens, UniProt P49841); assay: biochemical; design: In vitro kinase panel profiling, per cent remaining kinase activity at 10 uM; settings: atp_concentration=15, read-out: % of control remaining
T1 construct: gene GSK3B
Text: as §1

[4] = target: T2, IRAK4(h) (Homo sapiens, UniProt Q9NWZ3); assay: biochemical; design: In vitro kinase panel profiling, per cent remaining kinase activity at 10 uM; settings: atp_concentration=200, read-out: % of control remaining
T2 sequence (Q9NWZ3 1-460): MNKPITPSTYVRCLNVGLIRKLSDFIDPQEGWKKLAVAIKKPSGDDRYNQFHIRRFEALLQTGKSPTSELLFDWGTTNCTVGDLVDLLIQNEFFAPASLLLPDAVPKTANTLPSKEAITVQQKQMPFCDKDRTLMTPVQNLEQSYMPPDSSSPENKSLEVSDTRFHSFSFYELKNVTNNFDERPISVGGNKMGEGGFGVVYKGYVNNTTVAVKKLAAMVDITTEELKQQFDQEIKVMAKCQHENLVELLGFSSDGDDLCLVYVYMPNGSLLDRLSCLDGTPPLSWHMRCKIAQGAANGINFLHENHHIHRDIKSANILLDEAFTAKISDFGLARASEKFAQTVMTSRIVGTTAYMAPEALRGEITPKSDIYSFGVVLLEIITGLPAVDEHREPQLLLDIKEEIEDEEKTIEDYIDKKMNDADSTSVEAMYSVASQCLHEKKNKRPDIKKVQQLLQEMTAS
Text: as §1

[5] = target: KDR(h) (Homo sapiens, UniProt P35968); assay: biochemical; design: In vitro kinase panel profiling, per cent remaining kinase activity at 10 uM; settings: atp_concentration=90, read-out: % of control remaining
Text: as §1

[6] = target: T3, MLK1(h) (Homo sapiens, UniProt P80192); assay: biochemical; design: In vitro kinase panel profiling, per cent remaining kinase activity at 10 uM; settings: atp_concentration=45, read-out: % of control remaining
T3 construct: gene MAP3K9
Text: as §1

[7] = target: T4, PDGFRβ(h) (Homo sapiens, UniProt P09619); assay: biochemical; design: In vitro kinase panel profiling, per cent remaining kinase activity at 10 uM; settings: atp_concentration=200, read-out: % of control remaining
T4 construct: gene PDGFRB
Text: as §1

[8] = target: T5, PKA(h) (Homo sapiens, UniProt P17612); assay: biochemical; design: In vitro kinase panel profiling, per cent remaining kinase activity at 10 uM; settings: atp_concentration=10, read-out: % of control remaining
T5 construct: gene PRKACA
Text: as §1

[9] = target: T6, PRAK(h) (Homo sapiens, UniProt Q8IW41); assay: biochemical; design: In vitro kinase panel profiling, per cent remaining kinase activity at 10 uM; settings: atp_concentration=15, read-out: % of control remaining
T6 construct: gene MAPKAPK5
T6 sequence (Q8IW41 1-473): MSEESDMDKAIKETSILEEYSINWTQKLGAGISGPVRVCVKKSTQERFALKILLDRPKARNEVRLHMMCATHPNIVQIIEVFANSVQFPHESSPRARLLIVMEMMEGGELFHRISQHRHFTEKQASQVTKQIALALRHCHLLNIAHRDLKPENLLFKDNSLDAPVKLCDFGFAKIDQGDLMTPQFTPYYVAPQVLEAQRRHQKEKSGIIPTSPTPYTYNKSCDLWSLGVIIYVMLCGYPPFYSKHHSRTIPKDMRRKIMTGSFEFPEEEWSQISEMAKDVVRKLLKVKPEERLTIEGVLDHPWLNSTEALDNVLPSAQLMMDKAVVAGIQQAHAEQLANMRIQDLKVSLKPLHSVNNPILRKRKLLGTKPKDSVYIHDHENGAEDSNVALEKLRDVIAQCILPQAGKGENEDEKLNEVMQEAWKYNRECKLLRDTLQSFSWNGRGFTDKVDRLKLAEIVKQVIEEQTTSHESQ
Text: as §1

[10] = target: T7, Rsk1(h) (Homo sapiens, UniProt Q15418); assay: biochemical; design: In vitro kinase panel profiling, per cent remaining kinase activity at 10 uM; settings: atp_concentration=45, read-out: % of control remaining
T7 construct: gene RPS6KA1
Text: as §1

[11] = target: T8, TAK1(h) (Homo sapiens, UniProt O43318); assay: biochemical; design: In vitro kinase panel profiling, per cent remaining kinase activity at 10 uM; settings: atp_concentration=45, read-out: % of control remaining
T8 construct: gene MAP3K7
T8 sequence (O43318 1-606): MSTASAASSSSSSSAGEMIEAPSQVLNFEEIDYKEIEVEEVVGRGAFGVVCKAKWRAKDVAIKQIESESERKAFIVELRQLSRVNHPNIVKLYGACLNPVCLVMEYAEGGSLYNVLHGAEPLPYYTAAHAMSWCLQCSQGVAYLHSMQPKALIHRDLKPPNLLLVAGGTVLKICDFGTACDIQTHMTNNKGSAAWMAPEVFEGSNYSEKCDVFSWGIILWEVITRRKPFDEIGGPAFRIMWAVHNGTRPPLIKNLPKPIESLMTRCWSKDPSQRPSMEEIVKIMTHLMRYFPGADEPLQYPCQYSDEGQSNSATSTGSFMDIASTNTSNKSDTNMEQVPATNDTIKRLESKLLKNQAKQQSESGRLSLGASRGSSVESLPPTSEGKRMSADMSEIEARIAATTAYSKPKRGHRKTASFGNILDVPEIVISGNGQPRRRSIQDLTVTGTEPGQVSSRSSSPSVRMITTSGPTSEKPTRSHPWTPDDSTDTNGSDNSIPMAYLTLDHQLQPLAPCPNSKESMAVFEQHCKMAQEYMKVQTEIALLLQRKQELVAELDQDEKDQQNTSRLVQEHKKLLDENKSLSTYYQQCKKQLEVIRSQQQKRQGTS
Text: as §1

[12] = In vitro kinetic solubility; settings: for solubility_mean: In vitro kinetic solubility, ph 7.4

T1 sequence (P49841 whole entry): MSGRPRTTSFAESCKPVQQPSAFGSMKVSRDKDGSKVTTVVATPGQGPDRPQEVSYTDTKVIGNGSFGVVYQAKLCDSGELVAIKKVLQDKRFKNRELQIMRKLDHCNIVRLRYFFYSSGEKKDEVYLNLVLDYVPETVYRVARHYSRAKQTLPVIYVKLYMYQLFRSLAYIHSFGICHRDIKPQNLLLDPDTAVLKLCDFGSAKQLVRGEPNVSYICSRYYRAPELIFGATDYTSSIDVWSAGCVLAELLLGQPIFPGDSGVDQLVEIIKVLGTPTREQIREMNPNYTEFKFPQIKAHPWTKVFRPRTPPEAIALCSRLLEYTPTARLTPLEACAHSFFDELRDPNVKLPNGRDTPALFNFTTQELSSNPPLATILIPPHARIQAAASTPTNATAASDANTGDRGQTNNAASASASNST
T7 sequence (Q15418 whole entry): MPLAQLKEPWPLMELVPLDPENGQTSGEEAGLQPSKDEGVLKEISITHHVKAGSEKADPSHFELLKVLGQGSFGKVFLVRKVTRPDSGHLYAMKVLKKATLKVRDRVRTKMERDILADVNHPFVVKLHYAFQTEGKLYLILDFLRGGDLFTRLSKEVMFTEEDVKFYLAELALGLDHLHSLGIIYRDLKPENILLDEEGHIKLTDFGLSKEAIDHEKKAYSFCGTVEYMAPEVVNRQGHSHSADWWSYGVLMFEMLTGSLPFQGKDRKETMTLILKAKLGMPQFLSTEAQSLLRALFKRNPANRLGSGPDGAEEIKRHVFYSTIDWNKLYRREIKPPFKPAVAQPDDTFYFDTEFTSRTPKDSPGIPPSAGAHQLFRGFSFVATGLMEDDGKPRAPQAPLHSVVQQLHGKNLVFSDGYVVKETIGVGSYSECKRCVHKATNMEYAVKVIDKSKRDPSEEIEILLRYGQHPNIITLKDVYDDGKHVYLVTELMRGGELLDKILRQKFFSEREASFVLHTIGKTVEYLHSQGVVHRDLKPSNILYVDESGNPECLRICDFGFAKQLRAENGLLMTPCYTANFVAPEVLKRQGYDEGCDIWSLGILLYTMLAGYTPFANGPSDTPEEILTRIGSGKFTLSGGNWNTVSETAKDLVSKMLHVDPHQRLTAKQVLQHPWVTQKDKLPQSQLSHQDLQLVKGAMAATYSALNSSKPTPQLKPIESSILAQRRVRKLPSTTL
T4 sequence (P09619 whole entry): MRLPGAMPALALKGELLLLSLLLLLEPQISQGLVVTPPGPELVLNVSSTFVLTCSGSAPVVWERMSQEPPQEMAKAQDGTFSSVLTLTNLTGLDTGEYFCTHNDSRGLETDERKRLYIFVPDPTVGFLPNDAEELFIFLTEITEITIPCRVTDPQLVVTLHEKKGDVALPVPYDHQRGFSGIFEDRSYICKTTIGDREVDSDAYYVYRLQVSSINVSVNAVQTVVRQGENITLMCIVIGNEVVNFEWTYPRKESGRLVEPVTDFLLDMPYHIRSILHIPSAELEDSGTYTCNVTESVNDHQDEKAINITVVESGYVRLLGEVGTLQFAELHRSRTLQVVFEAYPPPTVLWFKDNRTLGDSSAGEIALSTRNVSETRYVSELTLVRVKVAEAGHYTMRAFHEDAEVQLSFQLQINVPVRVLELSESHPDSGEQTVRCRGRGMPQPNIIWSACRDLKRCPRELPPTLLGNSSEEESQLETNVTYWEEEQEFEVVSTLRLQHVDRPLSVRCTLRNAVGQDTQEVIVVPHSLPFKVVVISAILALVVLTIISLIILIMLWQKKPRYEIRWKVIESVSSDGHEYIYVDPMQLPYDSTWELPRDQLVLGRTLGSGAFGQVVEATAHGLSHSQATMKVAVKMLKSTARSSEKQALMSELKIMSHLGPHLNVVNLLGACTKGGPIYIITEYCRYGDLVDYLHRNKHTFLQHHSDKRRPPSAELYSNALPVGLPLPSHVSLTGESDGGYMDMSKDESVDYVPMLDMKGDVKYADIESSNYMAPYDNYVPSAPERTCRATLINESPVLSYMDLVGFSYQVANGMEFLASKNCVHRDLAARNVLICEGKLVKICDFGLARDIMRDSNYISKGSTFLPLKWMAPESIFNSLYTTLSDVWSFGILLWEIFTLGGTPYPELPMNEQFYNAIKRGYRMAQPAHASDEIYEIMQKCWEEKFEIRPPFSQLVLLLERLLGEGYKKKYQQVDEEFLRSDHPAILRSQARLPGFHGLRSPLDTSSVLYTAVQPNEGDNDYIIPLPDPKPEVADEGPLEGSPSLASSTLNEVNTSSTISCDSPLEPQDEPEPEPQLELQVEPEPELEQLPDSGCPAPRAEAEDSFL
T3 sequence (P80192 whole entry): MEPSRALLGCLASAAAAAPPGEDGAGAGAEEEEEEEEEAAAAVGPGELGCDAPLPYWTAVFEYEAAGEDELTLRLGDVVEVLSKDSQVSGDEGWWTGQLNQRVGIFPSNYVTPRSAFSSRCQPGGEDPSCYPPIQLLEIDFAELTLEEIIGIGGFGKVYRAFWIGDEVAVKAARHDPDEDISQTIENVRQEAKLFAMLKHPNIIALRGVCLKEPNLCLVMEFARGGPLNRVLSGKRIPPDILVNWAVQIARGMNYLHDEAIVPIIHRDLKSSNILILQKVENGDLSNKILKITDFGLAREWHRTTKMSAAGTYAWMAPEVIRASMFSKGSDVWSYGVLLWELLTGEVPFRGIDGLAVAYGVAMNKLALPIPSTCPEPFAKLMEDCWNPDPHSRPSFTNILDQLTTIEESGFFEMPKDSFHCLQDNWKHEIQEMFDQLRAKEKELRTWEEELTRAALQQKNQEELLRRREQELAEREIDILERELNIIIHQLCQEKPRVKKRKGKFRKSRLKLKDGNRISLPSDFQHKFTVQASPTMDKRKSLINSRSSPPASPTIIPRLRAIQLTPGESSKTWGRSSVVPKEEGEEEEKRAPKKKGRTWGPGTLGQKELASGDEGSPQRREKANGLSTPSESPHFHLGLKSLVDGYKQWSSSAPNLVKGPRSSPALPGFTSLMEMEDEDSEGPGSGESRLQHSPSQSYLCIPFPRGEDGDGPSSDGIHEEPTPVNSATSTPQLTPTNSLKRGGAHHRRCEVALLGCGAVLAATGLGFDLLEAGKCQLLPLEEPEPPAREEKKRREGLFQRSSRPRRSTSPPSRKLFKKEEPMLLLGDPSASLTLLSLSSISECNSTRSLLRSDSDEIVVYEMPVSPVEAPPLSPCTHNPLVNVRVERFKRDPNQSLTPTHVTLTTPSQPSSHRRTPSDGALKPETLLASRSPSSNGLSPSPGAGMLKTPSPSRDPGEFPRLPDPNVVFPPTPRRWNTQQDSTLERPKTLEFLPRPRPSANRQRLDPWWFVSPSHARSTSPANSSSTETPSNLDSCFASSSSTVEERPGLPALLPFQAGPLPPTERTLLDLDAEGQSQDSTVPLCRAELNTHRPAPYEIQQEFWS
Chain of KDR(h) (P35968 whole entry): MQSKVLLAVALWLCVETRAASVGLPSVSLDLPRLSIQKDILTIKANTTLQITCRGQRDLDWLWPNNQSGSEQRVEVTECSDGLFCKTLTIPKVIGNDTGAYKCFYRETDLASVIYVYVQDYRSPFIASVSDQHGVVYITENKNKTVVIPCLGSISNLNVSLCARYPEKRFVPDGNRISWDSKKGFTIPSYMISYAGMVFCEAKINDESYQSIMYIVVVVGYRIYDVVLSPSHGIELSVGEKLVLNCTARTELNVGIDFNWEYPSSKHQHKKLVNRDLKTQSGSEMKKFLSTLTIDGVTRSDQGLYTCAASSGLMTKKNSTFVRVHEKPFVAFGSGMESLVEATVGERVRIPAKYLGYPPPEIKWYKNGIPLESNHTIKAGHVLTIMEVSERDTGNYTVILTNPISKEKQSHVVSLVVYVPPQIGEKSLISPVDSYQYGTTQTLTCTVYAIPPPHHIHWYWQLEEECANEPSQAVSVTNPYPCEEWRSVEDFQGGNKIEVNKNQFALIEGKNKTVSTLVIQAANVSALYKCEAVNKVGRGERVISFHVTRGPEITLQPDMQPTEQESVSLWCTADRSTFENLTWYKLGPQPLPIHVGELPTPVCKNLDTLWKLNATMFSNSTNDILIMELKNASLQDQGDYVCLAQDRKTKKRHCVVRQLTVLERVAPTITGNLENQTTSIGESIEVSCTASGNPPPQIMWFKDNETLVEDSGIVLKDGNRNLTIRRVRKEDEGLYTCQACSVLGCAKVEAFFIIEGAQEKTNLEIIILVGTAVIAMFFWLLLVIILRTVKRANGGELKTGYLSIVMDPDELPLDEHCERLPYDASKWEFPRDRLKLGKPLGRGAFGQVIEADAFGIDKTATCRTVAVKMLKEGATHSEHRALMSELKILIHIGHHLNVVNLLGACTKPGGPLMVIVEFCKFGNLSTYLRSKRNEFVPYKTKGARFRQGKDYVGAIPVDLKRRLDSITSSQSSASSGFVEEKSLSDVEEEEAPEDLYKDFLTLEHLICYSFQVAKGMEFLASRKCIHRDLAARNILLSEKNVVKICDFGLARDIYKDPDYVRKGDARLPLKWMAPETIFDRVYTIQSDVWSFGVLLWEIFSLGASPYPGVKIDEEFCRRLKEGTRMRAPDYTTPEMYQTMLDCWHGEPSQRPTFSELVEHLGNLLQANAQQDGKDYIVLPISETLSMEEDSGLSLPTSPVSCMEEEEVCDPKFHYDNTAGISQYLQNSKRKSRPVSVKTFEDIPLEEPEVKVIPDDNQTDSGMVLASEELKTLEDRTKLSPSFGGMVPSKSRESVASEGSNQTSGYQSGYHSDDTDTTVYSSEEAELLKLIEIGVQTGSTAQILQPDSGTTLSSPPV

CC(C)[C@H](Nc1ncnc2[nH]ccc12)c1ccc2c(c1)S(=O)(=O)CCC2 [ASAP-0008674]
logd ([1]; pH 7.4, In vitro LogD): 2.7
remaining activity at 10 µM ([2]; batch_name=ASAP-0008674-002): 102%
remaining activity at 10 µM ([3]; batch_name=ASAP-0008674-002): 94%
remaining activity at 10 µM ([4]; batch_name=ASAP-0008674-002): 112%
remaining activity at 10 µM ([5]; batch_name=ASAP-0008674-002): 86%
remaining activity at 10 µM ([6]; batch_name=ASAP-0008674-002): 84%
remaining activity at 10 µM ([7]; batch_name=ASAP-0008674-002): 89%
remaining activity at 10 µM ([8]; batch_name=ASAP-0008674-002): 89%
remaining activity at 10 µM ([9]; batch_name=ASAP-0008674-002): 102%
remaining activity at 10 µM ([10]; batch_name=ASAP-0008674-002): 102%
remaining activity at 10 µM ([11]; batch_name=ASAP-0008674-002): 90%
solubility_mean [12]: 374 µM (≈ 139 µg/mL)

Cc1nn(C)cc1-c1cc2c(NC(c3ccc4c(c3)S(=O)(=O)CCC4)C(C)C)ncnc2[nH]1 (centres unmarked) [ASAP-0011446]
logd [1]: 3.1
logd ([1]; pH 7.4): 3.1
remaining activity at 10 µM ([2]; batch_name=ASAP-0011446-002): 107%
remaining activity at 10 µM ([3]; batch_name=ASAP-0011446-002): 96%
remaining activity at 10 µM ([4]; batch_name=ASAP-0011446-002): 107%
remaining activity at 10 µM ([5]; batch_name=ASAP-0011446-002): 88%
remaining activity at 10 µM ([6]; batch_name=ASAP-0011446-002): 79%
remaining activity at 10 µM ([7]; batch_name=ASAP-0011446-002): 97%
remaining activity at 10 µM ([8]; batch_name=ASAP-0011446-002): 95%
remaining activity at 10 µM ([9]; batch_name=ASAP-0011446-002): 82%
remaining activity at 10 µM ([10]; batch_name=ASAP-0011446-002): 110%
remaining activity at 10 µM ([11]; batch_name=ASAP-0011446-002): 100%
solubility kinetic [12]: 65 µM (≈ 30.2 µg/mL)
solubility ([12]; pH 7.4): 65 µM (≈ 30.2 µg/mL)

CC(C)[C@@H](Nc1ncnc2[nH]c(-c3cnn(C)c3C#N)cc12)c1ccc2c(n1)OCCO2 [ASAP-0008418]
logd ([1]; pH 7.4, In vitro LogD): 3.4 and 3.6
remaining activity at 10 µM ([2]; batch_name=ASAP-0008418-001): 95%
remaining activity at 10 µM ([3]; batch_name=ASAP-0008418-001): 85%
remaining activity at 10 µM ([4]; batch_name=ASAP-0008418-001): 100%
remaining activity at 10 µM ([5]; batch_name=ASAP-0008418-001): 80%
remaining activity at 10 µM ([6]; batch_name=ASAP-0008418-001): 81%
remaining activity at 10 µM ([7]; batch_name=ASAP-0008418-001): 108%
remaining activity at 10 µM ([8]; batch_name=ASAP-0008418-001): 92%
remaining activity at 10 µM ([9]; batch_name=ASAP-0008418-001): 95%
remaining activity at 10 µM ([10]; batch_name=ASAP-0008418-001): 145%
remaining activity at 10 µM ([11]; batch_name=ASAP-0008418-001): 103%
solubility_mean [12]: 89 µM and 60 µM
